Data on five compounds can be found in ChEMBL document CHEMBL1148883, “Hit-to-lead studies on benzimidazole inhibitors of ITK: discovery of a novel class of kinase inhibitors” (Bioorg Med Chem Lett, 2007).

Bounds are passed on as bounds.

In assay [1] the target is T1, Tyrosine-protein kinase ITK/TSK (Homo sapiens, UniProt Q08881).
T1 sequence (Q08881 whole entry): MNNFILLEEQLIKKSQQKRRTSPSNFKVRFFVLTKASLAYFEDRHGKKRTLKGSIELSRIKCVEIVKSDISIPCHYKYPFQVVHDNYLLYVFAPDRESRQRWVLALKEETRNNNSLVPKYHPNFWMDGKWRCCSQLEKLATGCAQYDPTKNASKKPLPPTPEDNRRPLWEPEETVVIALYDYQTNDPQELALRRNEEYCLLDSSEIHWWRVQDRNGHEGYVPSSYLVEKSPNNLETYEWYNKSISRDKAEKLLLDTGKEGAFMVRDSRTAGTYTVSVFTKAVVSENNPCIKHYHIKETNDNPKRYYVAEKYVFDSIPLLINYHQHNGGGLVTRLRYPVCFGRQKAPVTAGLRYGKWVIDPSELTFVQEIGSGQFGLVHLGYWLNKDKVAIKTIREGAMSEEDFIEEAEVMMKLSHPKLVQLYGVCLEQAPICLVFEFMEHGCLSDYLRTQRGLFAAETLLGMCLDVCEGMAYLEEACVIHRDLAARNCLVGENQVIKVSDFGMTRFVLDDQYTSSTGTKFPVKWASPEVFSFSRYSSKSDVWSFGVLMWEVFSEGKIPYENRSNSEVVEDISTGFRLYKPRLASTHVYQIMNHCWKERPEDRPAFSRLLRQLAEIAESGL
As to the kind of experiment: Inhibition of human ITK by DELFIA assay.

Assay [2] is described as follows: Inhibition of IRK. On the set-up: species or system Homo sapiens.
Assay [3] deals with Vascular endothelial growth factor receptor 1 (Homo sapiens, UniProt P17948). Nature of the assay: Inhibition of VEGFR1.
The target of assay [4] is T1, Tyrosine-protein kinase ITK/TSK. Nature of the assay: Inhibition of human ITK in presence of 3 uM ATP.
Assay [5] deals with Fibroblast growth factor receptor 3 (Homo sapiens, UniProt P22607). Nature of the assay: Inhibition of FGFR3.
The target in assay [6] is Epidermal growth factor receptor (Homo sapiens, UniProt P00533). As to the kind of experiment: Inhibition of EGFR.
Assay [7] concerns the target Tyrosine-protein kinase TXK (Homo sapiens, UniProt P42681). As to the kind of experiment: Inhibition of TXK.
For assay [8], the target named is Ephrin type-A receptor 2 (Homo sapiens, UniProt P29317). As to the kind of experiment: Inhibition of ECK.
Assay [9] addresses Rho-associated protein kinase 2 (Homo sapiens) (UniProt O75116). As to the kind of experiment: Inhibition of ROCK2 at 10 uM.
Assay [10] concerns the target Tyrosine-protein kinase Lyn (Homo sapiens, UniProt P07948). As to the kind of experiment: Inhibition of LYN.
In assay [11] the target is Platelet-derived growth factor receptor (Homo sapiens) (UniProt P09619+P16234). Nature of the assay: Inhibition of PDGFR at 10 uM. In kind it is protein-complex assay.
Assay [12] addresses T1, Tyrosine-protein kinase ITK/TSK. Nature of the assay: Inhibition of human ITK in presence of 500 uM ATP.
The target in assay [13] is Hepatocyte growth factor receptor (Homo sapiens, UniProt P08581). Nature of the assay: Inhibition of HGFR.
For assay [14], the target named is Protein kinase C beta type (Homo sapiens) (UniProt P05771). Nature of the assay: Inhibition of PKCbeta at 10 uM.
Assay [15] addresses Cytoplasmic tyrosine-protein kinase BMX (Homo sapiens, UniProt P51813). Nature of the assay: Inhibition of BMX.
For assay [16], the target named is Serine/threonine-protein kinase Chk1 (Homo sapiens) (UniProt O14757). Nature of the assay: Inhibition of CHK1 at 10 uM.
Assay [17] deals with T1, Tyrosine-protein kinase ITK/TSK. As to the kind of experiment: Inhibition of human ITK in presence of 20 uM ATP.
Assay [18] shares this target. Nature of the assay: Inhibition of human ITK in presence of 100 uM ATP.
Assay [19] deals with MAP kinase-activated protein kinase 2 (Homo sapiens) (UniProt P49137). As to the kind of experiment: Inhibition of MAPKAPK2 at 10 uM.
The target of assay [20] is Cyclin-dependent kinase 5 (Homo sapiens) (UniProt Q00535). Nature of the assay: Inhibition of CDK5 at 10 uM.
Assay [21] addresses Cyclin-dependent kinase 2 (Homo sapiens) (UniProt P24941). As to the kind of experiment: Inhibition of CDK2 at 10 uM.
Assay [22] has as its target Tyrosine-protein kinase BTK (Homo sapiens, UniProt Q06187). As to the kind of experiment: Inhibition of BTK.
Assay [23] concerns the target Dual specificity mitogen-activated protein kinase kinase 1 (Homo sapiens) (UniProt Q02750). As to the kind of experiment: Inhibition of MKK1 at 10 uM.
Assay [24] has as its target T1, Tyrosine-protein kinase ITK/TSK. As to the kind of experiment: Effect on human ITK in DT40 cells assessed as […] of calcium influx by FLIPR assay. Format: cell-based.
In assay [25] the target is Tyrosine-protein kinase Tec (Homo sapiens, UniProt P42680). As to the kind of experiment: Inhibition of TEC.
Assay [26] deals with Tyrosine-protein kinase SYK (Homo sapiens) (UniProt P43405). Nature of the assay: Inhibition of SYK at 10 uM.
Assay [27] has as its target Tyrosine-protein kinase JAK3 (Homo sapiens) (UniProt P52333). As to the kind of experiment: Inhibition of JAK3 at 10 uM.

Chain of Cytoplasmic tyrosine-protein kinase BMX (P51813 whole entry): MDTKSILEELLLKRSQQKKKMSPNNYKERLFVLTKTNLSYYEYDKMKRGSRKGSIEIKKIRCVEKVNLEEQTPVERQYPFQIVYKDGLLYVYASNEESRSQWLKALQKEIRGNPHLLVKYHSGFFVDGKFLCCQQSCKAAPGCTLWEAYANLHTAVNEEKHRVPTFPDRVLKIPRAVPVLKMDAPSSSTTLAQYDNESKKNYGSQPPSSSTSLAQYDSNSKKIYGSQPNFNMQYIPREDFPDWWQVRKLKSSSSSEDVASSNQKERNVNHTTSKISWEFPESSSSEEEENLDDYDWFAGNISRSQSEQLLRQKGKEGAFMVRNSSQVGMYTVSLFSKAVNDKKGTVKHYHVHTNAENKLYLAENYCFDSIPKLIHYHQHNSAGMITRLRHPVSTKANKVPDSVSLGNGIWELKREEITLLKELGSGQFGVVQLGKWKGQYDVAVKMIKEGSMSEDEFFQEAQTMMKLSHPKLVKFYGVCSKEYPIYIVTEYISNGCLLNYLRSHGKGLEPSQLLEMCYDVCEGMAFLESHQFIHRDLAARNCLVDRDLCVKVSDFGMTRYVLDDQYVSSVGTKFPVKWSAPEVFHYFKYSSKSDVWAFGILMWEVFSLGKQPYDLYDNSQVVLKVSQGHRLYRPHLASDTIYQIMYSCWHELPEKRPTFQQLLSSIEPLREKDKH
Chain of Tyrosine-protein kinase Tec (P42680 whole entry): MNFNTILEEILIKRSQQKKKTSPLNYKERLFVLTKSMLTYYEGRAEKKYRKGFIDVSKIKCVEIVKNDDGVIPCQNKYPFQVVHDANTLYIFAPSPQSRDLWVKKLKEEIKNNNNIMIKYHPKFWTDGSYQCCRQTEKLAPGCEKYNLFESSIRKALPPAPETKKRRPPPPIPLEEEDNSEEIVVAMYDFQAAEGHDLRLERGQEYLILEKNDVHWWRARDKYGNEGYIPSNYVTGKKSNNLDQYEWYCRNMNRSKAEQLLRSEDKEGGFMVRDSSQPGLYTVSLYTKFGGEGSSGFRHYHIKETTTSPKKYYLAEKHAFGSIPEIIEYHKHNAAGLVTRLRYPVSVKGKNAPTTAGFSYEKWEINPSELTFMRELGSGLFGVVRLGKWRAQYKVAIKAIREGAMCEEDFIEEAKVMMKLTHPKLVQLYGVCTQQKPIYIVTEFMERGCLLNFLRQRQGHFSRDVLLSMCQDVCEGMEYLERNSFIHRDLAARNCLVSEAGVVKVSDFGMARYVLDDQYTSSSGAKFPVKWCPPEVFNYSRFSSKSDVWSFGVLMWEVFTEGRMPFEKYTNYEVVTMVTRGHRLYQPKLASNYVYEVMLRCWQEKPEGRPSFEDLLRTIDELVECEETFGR
Chain of Tyrosine-protein kinase TXK (P42681 whole entry): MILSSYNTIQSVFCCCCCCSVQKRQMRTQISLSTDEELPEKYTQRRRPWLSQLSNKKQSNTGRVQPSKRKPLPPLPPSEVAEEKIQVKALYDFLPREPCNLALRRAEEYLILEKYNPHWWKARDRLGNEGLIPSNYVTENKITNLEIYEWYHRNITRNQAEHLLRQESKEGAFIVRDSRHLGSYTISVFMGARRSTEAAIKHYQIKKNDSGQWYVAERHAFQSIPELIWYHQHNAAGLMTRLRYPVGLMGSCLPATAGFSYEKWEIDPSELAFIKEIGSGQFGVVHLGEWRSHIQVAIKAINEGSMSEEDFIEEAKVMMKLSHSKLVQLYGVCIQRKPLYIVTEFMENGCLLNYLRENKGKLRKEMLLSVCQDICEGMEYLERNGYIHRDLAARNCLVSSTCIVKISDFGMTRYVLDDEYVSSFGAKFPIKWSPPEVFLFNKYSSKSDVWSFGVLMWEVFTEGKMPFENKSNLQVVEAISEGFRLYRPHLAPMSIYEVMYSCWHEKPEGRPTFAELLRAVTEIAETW
Chain of Fibroblast growth factor receptor 3 (P22607 whole entry): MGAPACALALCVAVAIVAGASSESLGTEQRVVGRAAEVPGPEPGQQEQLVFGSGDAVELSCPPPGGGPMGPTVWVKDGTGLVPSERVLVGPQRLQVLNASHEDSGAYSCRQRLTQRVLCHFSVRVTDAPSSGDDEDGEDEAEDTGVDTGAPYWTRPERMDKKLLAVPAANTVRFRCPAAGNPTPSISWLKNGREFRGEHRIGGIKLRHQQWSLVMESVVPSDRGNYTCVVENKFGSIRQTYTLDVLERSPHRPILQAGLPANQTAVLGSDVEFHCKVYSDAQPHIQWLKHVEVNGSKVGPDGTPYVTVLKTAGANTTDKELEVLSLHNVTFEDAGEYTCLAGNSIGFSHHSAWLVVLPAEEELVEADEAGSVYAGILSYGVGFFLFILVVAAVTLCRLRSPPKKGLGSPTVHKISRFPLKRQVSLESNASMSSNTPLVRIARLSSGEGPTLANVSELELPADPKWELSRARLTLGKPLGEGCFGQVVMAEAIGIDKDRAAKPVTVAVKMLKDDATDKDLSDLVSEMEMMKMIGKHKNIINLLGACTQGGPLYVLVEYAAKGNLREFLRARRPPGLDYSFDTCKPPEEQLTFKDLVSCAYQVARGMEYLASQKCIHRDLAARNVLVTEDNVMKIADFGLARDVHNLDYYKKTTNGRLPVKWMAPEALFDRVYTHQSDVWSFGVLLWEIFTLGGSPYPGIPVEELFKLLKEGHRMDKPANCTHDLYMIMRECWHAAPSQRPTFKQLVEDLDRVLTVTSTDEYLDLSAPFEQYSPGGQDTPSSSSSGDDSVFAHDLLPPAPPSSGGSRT
Chain of Rho-associated protein kinase 2 (Homo sapiens) (O75116 whole entry, looked up): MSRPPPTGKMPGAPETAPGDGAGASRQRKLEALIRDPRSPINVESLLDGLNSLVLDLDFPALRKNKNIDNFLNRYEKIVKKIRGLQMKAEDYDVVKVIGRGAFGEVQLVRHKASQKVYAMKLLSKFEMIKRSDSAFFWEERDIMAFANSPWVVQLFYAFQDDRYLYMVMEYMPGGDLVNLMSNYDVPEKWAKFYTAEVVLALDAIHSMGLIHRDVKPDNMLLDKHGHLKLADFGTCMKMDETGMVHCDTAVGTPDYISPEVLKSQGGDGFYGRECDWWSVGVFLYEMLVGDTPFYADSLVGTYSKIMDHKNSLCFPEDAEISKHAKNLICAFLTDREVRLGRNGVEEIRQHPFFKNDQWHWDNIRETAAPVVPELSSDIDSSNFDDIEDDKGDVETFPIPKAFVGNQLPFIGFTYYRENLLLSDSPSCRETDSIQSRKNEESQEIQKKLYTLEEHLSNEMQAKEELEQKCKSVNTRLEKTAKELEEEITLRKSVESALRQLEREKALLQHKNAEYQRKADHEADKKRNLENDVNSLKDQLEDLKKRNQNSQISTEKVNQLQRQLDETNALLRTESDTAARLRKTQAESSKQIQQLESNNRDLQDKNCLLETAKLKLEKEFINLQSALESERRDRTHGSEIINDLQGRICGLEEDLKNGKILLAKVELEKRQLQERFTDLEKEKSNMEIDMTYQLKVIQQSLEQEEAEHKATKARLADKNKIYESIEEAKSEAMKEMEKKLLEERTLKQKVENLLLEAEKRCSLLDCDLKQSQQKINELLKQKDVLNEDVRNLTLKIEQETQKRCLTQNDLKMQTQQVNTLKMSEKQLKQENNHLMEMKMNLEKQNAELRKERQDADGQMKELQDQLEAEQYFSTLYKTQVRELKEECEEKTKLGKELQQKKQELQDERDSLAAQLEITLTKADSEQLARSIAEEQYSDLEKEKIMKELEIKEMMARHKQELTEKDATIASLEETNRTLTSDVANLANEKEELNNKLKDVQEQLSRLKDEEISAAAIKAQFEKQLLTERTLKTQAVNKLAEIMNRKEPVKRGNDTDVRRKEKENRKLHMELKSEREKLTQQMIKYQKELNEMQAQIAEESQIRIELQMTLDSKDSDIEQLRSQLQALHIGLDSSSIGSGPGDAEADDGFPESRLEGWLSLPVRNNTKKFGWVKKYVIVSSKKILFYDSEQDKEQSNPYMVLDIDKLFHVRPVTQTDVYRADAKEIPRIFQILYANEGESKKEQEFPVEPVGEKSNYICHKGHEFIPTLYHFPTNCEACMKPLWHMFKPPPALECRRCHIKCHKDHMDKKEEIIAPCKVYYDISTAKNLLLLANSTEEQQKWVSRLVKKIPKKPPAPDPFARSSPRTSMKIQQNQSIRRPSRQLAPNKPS
Chain of Serine/threonine-protein kinase Chk1 (Homo sapiens) (O14757 whole entry): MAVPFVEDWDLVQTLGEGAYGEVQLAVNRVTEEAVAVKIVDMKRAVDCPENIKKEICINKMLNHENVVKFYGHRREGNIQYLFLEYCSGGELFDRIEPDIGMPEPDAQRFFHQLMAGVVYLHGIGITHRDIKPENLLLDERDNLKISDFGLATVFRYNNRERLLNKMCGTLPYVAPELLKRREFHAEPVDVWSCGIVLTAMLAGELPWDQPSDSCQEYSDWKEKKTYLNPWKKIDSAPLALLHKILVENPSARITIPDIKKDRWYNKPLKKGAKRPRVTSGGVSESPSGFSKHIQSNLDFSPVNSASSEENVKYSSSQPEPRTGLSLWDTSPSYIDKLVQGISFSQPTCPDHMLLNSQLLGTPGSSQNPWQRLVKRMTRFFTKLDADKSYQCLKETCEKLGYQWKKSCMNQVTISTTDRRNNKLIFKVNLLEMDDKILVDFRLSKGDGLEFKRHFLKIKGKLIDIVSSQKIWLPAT
Chain of Tyrosine-protein kinase Lyn (P07948 whole entry): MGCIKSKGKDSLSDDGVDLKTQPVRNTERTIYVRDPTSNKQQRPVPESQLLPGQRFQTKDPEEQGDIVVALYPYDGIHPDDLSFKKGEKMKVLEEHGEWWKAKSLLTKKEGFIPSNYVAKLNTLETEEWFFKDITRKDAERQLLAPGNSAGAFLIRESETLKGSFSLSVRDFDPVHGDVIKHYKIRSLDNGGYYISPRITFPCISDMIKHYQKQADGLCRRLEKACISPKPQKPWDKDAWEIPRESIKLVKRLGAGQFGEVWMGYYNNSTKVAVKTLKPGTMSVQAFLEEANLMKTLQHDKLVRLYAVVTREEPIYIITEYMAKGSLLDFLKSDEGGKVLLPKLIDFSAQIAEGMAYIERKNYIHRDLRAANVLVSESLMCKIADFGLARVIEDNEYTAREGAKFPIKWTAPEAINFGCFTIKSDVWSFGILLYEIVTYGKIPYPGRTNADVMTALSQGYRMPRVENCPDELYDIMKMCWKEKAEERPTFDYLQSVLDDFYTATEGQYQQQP

As to `NC(=O)CCn1c(NC(=O)c2ccccc2)nc2cc(C(=O)NC3CCCCC3)ccc21`, in [1], the IC50 (as a rule, the concentration needed to halve the response being measured) was above 20000 nM.

Consider `NC(=O)CCn1c(NC(=O)c2ccccc2)nc2cc(C(=O)N(C3CCCCC3)C3CCCCC3)ccc21`, for which, in assay [1], the IC50 is above 20000 nM.

`NC(=O)CCn1c(NC(=O)c2ccsc2)nc2cc(C(=O)NC3CCCCC3)ccc21`: the IC50 in assay [1] is above 20000 nM.

As for `NCCCn1c(NC(=O)c2cccs2)nc2cc(C(=O)OC3CCCCC3)ccc21`, the IC50 in assay [1] was above 20000 nM.

For the compound `CN(C(=O)C1CCCCC1)c1ccc2c(c1)nc(NC(=O)c1cccs1)n2CCCN`, the IC50 is 200 nM in [2]; above 10000 nM in assay [3]; 25 nM in assay [4]; above 6000 nM in [5]; above 6000 nM in assay [6]; 1400 nM in [7]. The IC50 in assay [1] is 25 nM; in assay [8], above 10000 nM; in assay [10] it was above 10000 nM; in assay [12], 1100 nM; in [13] it was above 10000 nM; in assay [15], above 22000 nM. Besides, the IC50 was 80 nM in [17]; 240 nM in [18]; above 22000 nM in [22]; 2400 nM in [24]; 22000 nM in [25]. Moreover, the inhibition (as a rule, the relative decrease from the control value, in per cent) in assay [9] was -1%; in assay [11] it was 10%; in assay [14], 21%; in [16], 8%; in assay [19] it was 1%; in assay [20] it was -4%. The inhibition was 7% in assay [21], -2% in [23], 6% in assay [26] and -7% in [27].
